According to the NIST ThermoML archive (doi:10.1016/j.tca.2011.02.002):

Tests used:
[1] = xn = mol fraction of the nth substance listed; settings: 101 kPa, Liquid; for mass density: Vibrating tube method
[2] = excess molar enthalpy (molar enthalpy of mixing); xn = mol fraction of the nth substance listed; settings: 308.15 K, 101 kPa, Liquid, 2-drop calorimeter (CSC 4600_

Cc1cccnc1 [3-methylpyridine] + C1CCOCC1
[1]
Settings	mass density, 298.15 K [kg/m3]	mass density, 303.15 K [kg/m3]	mass density, 308.15 K [kg/m3]	speed of sound, 298.15 K [m/s]	speed of sound, 303.15 K [m/s]	speed of sound, 308.15 K [m/s]
x2 = 0	952.002	947.449	942.831	1424	1404	1384
x2 = 0.0562	948.099	943.521	938.854	1415.9	1395.6	1375.6
x2 = 0.0848	946.113	941.519	936.827	1411.8	1391.4	1371.4
x2 = 0.1357	942.576	937.954	933.219	1404.5	1383.9	1363.8
x2 = 0.1826	939.306	934.651	929.891	1397.8	1377.1	1356.8
x2 = 0.2461	934.857	930.166	925.361	1388.8	1367.8	1347.2
x2 = 0.2833	932.236	927.522	922.691	1383.3	1362.3	1341.5
x2 = 0.3345	928.61	923.861	919.004	1375.8	1354.5	1333.6
x2 = 0.3813	925.271	920.499	915.608	1368.6	1347.3	1326.2
x2 = 0.4262	922.049	917.247	912.336	1361.8	1340.3	1319.2
x2 = 0.4827	917.964	913.129	908.186	1353	1331.2	1310.1
x2 = 0.5378	913.951	909.085	904.106	1344.3	1322.4	1301.2
x2 = 0.5924	909.933	905.038	900.027	1335.5	1313.3	1292.3
x2 = 0.6382	906.545	901.626	896.591	1328	1305.7	1284.7
x2 = 0.6982	902.068	897.114	892.051	1318.1	1295.6	1274.7
x2 = 0.7568	897.664	892.682	887.584	1308.6	1285.8	1264.9
x2 = 0.8138	893.349	888.335	883.218	1299.2	1276.4	1255.4
x2 = 0.8825	888.124	883.068	877.926	1288.2	1265.1	1243.9
x2 = 0.9321	884.334	879.246	874.092	1280.3	1257.2	1235.7

[2]
Settings	excess molar enthalpy [kcal/mol]
x2 = 0.0532	0.0059
x2 = 0.1118	0.0118
x2 = 0.1802	0.0181
x2 = 0.2238	0.0215
x2 = 0.2732	0.0248
x2 = 0.3311	0.0277
x2 = 0.3913	0.0298
x2 = 0.4461	0.0302
x2 = 0.4803	0.0304
x2 = 0.5365	0.0299
x2 = 0.5868	0.0293
x2 = 0.6344	0.0276
x2 = 0.6802	0.0249
x2 = 0.7355	0.0221
x2 = 0.7832	0.0184
x2 = 0.8326	0.0149
x2 = 0.8914	0.00963
x2 = 0.9336	0.00607

Cc1ccncc1 [4-methylpyridine] + C1CCOCC1
[1]
Settings	mass density, 298.15 K [kg/m3]	mass density, 303.15 K [kg/m3]	mass density, 308.15 K [kg/m3]	speed of sound, 298.15 K [m/s]	speed of sound, 303.15 K [m/s]	speed of sound, 308.15 K [m/s]
x2 = 0	950.179	945.413	940.821	1431.5	1410.7	1389.9
x2 = 0.0521	946.678	941.884	936.955	1422.7	1402.2	1380.6
x2 = 0.0832	944.577	939.773	935.004	1417.5	1397.2	1376.2
x2 = 0.1426	940.548	935.733	931.541	1407.8	1387.6	1368.4
x2 = 0.1882	937.434	932.615	928.307	1400.5	1380.3	1360.8
x2 = 0.2536	932.939	928.121	923.922	1390.1	1369.7	1350.5
x2 = 0.2902	930.406	925.591	921.331	1384.3	1363.8	1344.4
x2 = 0.3415	926.841	922.019	917.744	1376.1	1355.3	1336
x2 = 0.3782	924.275	919.451	914.432	1370.3	1349.3	1328
x2 = 0.4323	920.471	915.637	911.254	1361.6	1340.5	1320.8
x2 = 0.4913	916.295	911.443	907.207	1352.1	1330.7	1311.3
x2 = 0.5437	912.559	907.692	903.227	1343.6	1322	1302.1
x2 = 0.5991	908.587	903.687	899.247	1334.5	1312.8	1292.8
x2 = 0.6427	905.441	900.515	895.885	1327.3	1305.5	1285.2
x2 = 0.7015	901.173	896.211	891.453	1317.7	1295.7	1275
x2 = 0.7822	895.277	890.253	887.03	1304.4	1282.3	1264.5
x2 = 0.8263	892.032	886.976	882.795	1297.2	1275	1255.2
x2 = 0.8846	887.726	882.631	877.665	1287.9	1265.5	1243.9
x2 = 0.9435	883.352	878.225	873.901	1278.6	1255.9	1235.3

[2]
Settings	excess molar enthalpy [kcal/mol]
x2 = 0.0442	0.00296
x2 = 0.1216	0.0102
x2 = 0.1982	0.0182
x2 = 0.2416	0.0233
x2 = 0.2882	0.0282
x2 = 0.3401	0.0323
x2 = 0.3876	0.0366
x2 = 0.4371	0.0395
x2 = 0.4834	0.0416
x2 = 0.5256	0.0419
x2 = 0.5934	0.0413
x2 = 0.6433	0.039
x2 = 0.6925	0.0359
x2 = 0.7367	0.0316
x2 = 0.7952	0.0256
x2 = 0.8262	0.0227
x2 = 0.8842	0.015
x2 = 0.9406	0.00777
